“Also recorded” adds a separate entry of the source.
Tests used:
[1] = molecular target: T1, EphrinB2-EphB4 (Homo sapiens, UniProt P54760); experiment: Octet, immobilized human EphrinB2 binding to 50 nM soluble human EphB4
T1 construct: soluble human EphB1-His, EphB2-His, and EphB4-His ectodomains; commercially available human EphrinB1-Fc (EB1), EphrinB2-Fc (EB2), and EphrinB3-Fc (EB3) ectodomain proteins; purchased
T1 sequence (P54760 16-539 limits assumed): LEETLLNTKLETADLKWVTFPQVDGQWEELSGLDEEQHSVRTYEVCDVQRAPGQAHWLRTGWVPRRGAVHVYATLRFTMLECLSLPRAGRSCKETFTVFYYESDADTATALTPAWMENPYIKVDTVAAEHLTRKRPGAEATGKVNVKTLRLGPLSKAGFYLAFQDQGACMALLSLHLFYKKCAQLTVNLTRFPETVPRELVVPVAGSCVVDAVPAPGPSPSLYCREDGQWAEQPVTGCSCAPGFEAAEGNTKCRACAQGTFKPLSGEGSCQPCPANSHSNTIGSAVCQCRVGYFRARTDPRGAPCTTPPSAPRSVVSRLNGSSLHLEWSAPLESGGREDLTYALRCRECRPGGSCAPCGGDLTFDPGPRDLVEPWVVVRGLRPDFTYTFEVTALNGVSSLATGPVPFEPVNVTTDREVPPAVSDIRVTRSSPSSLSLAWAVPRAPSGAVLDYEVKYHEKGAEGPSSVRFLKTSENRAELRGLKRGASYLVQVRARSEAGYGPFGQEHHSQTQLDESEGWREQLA
Procedure: Studies were conducted to confirm that A20 chemicals can effectively target the human Eph/Ephrin proteins. Octet system was used to first characterize the biophysical interactions of the human B class Eph and Ephrin proteins, and then was tested to assess how A20 may disrupt the interactions. Since the human and rodent proteins are highly conserved, and essentially identical, with EphB2 sharing 99.5% identity between human and mouse, with only 5 of ~1,000 amino acids different, any species-specific differences were not anticipated. Therefore, commercially available human EphrinB1-Fc (EB1), EphrinB2-Fc (EB2), and EphrinB3-Fc (EB3) ectodomain proteins were sparsely immobilized onto biosensors and then exposed to 50 nM of soluble human EphB1-His, EphB2-His, and EphB4-His ectodomains for 800 sec association and 1,000 sec dissociation steps with a total of nine different interactions analyzed. In the absence of A20 chemical, the immobilized human EphrinB proteins bound to their appropriate human EphB target proteins; with EphrinB1 only bound EphB1 and EphB2, EphrinB2 bound all three EphB1, EphB2, and EphB4, and EphrinB3 only bound EphB1 and EphB2 (FIG. 19A-19B). […]

[2] = molecular target: T2, EphB4-Fc / EB2-His (Mus musculus, UniProt P54761); experiment: pulldown EB2-His to EphB4-Fc; type: binding; settings: up to 250 μM for A20; listed as A20
T2 construct: soluble mouse EB2-His ectodomain, pulldown
T2 sequence (P54761 16-539 limits assumed): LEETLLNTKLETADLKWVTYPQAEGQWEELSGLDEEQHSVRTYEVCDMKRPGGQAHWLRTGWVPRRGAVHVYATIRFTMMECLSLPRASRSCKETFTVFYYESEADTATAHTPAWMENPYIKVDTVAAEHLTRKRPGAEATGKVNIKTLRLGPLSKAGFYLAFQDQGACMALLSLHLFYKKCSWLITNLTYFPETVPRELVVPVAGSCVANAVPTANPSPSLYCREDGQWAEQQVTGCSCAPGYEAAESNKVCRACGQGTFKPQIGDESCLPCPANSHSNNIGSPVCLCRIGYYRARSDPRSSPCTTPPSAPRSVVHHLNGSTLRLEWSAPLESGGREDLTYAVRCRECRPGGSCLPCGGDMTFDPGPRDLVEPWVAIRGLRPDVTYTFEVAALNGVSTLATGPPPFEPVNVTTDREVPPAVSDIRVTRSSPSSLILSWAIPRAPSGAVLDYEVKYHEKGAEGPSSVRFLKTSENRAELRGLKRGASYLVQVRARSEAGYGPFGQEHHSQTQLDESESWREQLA

Compound: Oc1c(Br)cc(CN2CCOCC2)c2cccnc12 [Compound 5, 7-bromo-5-(morpholinomethyl)quinolin-8-ol]
- absolute IC50 ([1]; A20 salt up to 100 μM): absence of an absolute IC50
- association slope ([1]; in presence of A20, role: inhibitor, 5° without): 3 °
- pulldown EphB4-Fc binding to EB2-His [2]: only a weak ability to prevent EphB4-Fc from binding to EB2-His; also recorded: only weak/poor ability to antagonize soluble EB2-His binding

— patent US20260374739A1, “SMALL MOLECULAR WEIGHT CHEMICAL COMPOUND TO ANTAGONIZE EPH-EPHRIN TETRAMERIZATION AND INHIBIT BIDIRECTIONAL SIGNALING” (THE BOARD OF REGENTS OF THE UNIVERSITY OF TEXAS SYSTEM, priority 2022, published 2026)
